ChEMBL document CHEMBL1201862, “PubChem BioAssay data set” (2004)
Active and inactive are the calls of the source.

What was measured:
[1] = system: INS1; experiment: INS-1E survival protection against cytokine death – cell-based, luminescence, retest, dose response (AID 449756); type: functional; settings: Rattus norvegicus;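 further: cell death triggered by IL-1 beta plus TNF-alpha plus IFN-gamma mixture; protective hits raise ATP signal compared with cytokine alone wells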
[2] = target: T1, Bcl-2-related protein A1 (Mus musculus, UniProt Q07440); type: functional;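 further: confirmatory dose–response counterscreen on Bfl-1, used to check hits from a UBC13 polyubiquitin inhibitor campaign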
T1 sequence (Q07440 whole entry): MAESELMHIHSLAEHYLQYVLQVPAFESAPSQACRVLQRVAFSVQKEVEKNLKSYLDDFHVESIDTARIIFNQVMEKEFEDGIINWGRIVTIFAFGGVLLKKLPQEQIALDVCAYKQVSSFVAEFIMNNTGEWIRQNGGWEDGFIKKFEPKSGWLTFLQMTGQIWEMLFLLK

[3] = microbe, parasite or virus in culture; type: functional; settings: Mycobacterium tuberculosis
[4] = Luminescence Cell-Based Dose Retest to Confirm Inhibitors of Cancer Stem Cells. [Related pubchem assays (depositor defined):AID2717, AID2721]; type: functional; settings: Homo sapiens
[5] = target: T2, Ubiquitin-conjugating enzyme E2 N (Homo sapiens, UniProt P61088); type: functional
T2 sequence (P61088 whole entry): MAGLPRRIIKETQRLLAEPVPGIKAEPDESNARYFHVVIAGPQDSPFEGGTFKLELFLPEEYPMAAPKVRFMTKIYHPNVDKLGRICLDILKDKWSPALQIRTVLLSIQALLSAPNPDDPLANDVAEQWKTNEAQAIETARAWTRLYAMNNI

[6] = target: T2, Ubiquitin-conjugating enzyme E2 N; type: functional; remark: listed apart in the source
[7] = target: T3, SUMO-activating enzyme (Homo sapiens, UniProt Q9UBT2); experiment: blockers of SAE1/SAE2–UBC9 SUMO transfer – biochemical, HTRF, uHTS, primary screen (AID 2006); type: protein-complex assay
[8] = target: T3, SUMO-activating enzyme; experiment: blockers of UBC9-mediated SUMO conjugation – biochemical, AlphaScreen, SUMOylation inhibitor project, confirmation (AID 2018); type: functional
[9] = target: Intestinal-type alkaline phosphatase (Homo sapiens, UniProt P09923); experiment: inhibition of human intestinal alkaline phosphatase – biochemical, dose response (AID 488876); type: functional
[10] = target: Intestinal-type alkaline phosphatase (Mus musculus, UniProt P24822); experiment: PubChem AID 488785; type: functional
[11] = target: T4, Alkaline phosphatase, tissue-nonspecific isozyme (Homo sapiens, UniProt P05186); experiment: TNAP enzyme inhibition by screening hits, dose response, selectivity assay for mouse IAP inhibitor project, biochemical, human TNAP, uHTS hits (AID 488906); type: functional
T4 sequence (P05186 whole entry): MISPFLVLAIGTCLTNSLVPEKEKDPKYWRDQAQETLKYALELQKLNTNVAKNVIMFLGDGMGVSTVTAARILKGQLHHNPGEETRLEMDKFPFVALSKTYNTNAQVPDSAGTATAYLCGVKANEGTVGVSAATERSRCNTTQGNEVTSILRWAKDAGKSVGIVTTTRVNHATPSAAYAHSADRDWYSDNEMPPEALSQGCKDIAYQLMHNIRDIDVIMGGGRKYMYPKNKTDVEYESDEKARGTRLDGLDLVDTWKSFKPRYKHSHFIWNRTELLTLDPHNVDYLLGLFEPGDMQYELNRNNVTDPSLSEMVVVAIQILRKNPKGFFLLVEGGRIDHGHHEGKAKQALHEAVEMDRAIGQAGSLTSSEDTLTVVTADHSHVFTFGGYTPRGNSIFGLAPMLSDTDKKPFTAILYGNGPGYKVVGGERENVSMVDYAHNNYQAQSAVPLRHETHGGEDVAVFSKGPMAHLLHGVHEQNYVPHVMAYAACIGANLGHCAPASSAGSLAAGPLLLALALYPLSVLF

[12] = target: Mitogen-activated protein kinase 10 (Homo sapiens, UniProt P53779); experiment: Dose response biochemical screening assay for inhibitors of c-Jun N-Terminal Kinase 3 (JNK3). [Related pubchem assays: 746 ]
[13] = Luminescence Cell-Based Dose Response to Identify Activators of Luciferase Translation or Activity in H4-C Neuroglioblastoma Cells. [Related pubchem assays: 1829 (Project Summary), 1814 (Primary HTS)]; type: functional
[14] = system: H4; experiment: Luminescence Cell-Based Dose Response HTS to Identify Activators of 5'UTR Stem-Loop Driven Prion Protein mRNA Translation in H4 Neuroglioblastoma Cells. [Related pubchem assays: 1829 (Project Summary), 1814 (Primary HTS)]; type: functional; settings: Homo sapiens
[15] = Luminescence Cell-Based Dose Response to Identify Activators of 5'UTR Stem-Loop Driven Prion Protein mRNA Translation in H4-C Neuroglioblastoma Cells. [Related pubchem assays: 1829 (Project Summary), 1814 (Primary HTS)]; type: functional
[16] = Luminescence Cell-Based Dose Response HTS to Identify Activators of Luciferase Translation or Activity in H4 […] Cells. [Related pubchem assays: 1829 (Project Summary), 1814 (Primary HTS)]; type: functional
[17] = Luminescence Cell-Based Dose Confirmation to Identify Activators of 5'UTR Stem-Loop Driven Alpha-Synuclein mRNA Translation in H4 Neuroglioblastoma Cells. [Related pubchem assays: 1829 (Project Summary), 1814 (Primary HTS)]; type: functional
[18] = Luminescence Cell-Based Dose Response HTS to Identify Inhibitors of Luciferase Translation or Activity in H4-C Neuroglioblastoma Cells. [Related pubchem assays: 1813 (Primary HTS), 1827 (Project Summary)]; type: functional
[19] = alpha-synuclein stem-loop translation blockers – luminescence, H4 neuroglioblastoma cells, dose confirmation, confirmation (AID 2454); type: functional, cell-based;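 further: H4 neuroglioblastoma cells carrying an alpha-synuclein 5'UTR luciferase reporter; potency for inhibition of the luciferase signal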
[20] = system: BJ; experiment: BJ-TERT-LT-ST fibroblast viability loss – cell-based, RAS-independent, luminescence, dose response (AID 1935); type: functional; settings: Homo sapiens;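 further: BJ fibroblasts immortalized with TERT plus LT and ST oncogenes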
[21] = cells; type: functional, cell-based
[22] = Luminescence Cell-Based Dose Response HTS to Identify Activators of Luciferase Translation or Activity in H4-C Neuroglioblastoma Cells. [Related pubchem assays: 1829 (Project Summary), 1814 (Primary HTS)]; type: functional
[23] = Luminescence Cell-Based Dose Confirmation HTS to Identify Inhibitors of 5'UTR Stem-Loop Driven Alpha-Synuclein mRNA Translation in H4 Neuroglioblastoma Cells. [Related pubchem assays: 1827 (Project Summary), 1813 (Primary HTS)]; type: functional
[24] = Luminescence Cell-Based Dose Response HTS to Identify Activators of 5'UTR Stem-Loop Driven Prion Protein mRNA Translation in H4-C Neuroglioblastoma Cells. [Related pubchem assays: 1829 (Project Summary), 1814 (Primary HTS)]; type: functional
[25] = Luminescence Cell-Based Dose HTS Response to Identify Inhibitors of 5'UTR Stem-Loop Driven Prion Protein mRNA Translation in H4-C Neuroglioblastoma Cells. [Related pubchem assays (depositor defined):AID1814, AID1827]; type: functional
[26] = luciferase reporter signal reduction – luminescence, H4-C neuroglioblastoma cells, dose response (AID 2458); type: functional, cell-based;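 further: H4 neuroglioblastoma cells stably carrying a luciferase reporter gene fusion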
[27] = luciferase reporter signal suppression in cells – H4 neuroglioma cells, luminescence, dose response (AID 1990); type: functional, cell-based
[28] = HEK-293T viability loss after treatment – luminescence, T-cell screen hits, cytotoxicity control for TCR NF-kB inhibitor project, dose response (AID 489026); type: functional, cell-based;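 further: cells exposed to compound about 14 hours before the viability readout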
[29] = alpha-synuclein stem-loop luciferase translation blockers – H4 neuroglioma cells, luminescence, confirmation (AID 1988); type: functional, cell-based
[30] = Luminescence Cell-Based Dose Retest to Confirm Activators of 5'UTR Stem-Loop Driven Alpha-Synuclein mRNA Translation in H4 Neuroglioblastoma Cells. [Related pubchem assays (depositor defined):AID1813, AID1829]; type: functional
[31] = system: BJ; experiment: cells; type: functional, cell-based; settings: Homo sapiens
[32] = Luminescence Cell-Based Dose Response HTS to Identify Inhibitors of 5'UTR Stem-Loop Driven Prion Protein mRNA Translation in H4 Neuroglioblastoma Cells. [Related pubchem assays: 1827 (Project Summary), 1813 (Primary HTS)]; type: functional
[33] = DRD fibroblast viability loss – cell-based, non-viral oncogenic, luminescence, dose response (AID 1934); type: functional; settings: Homo sapiens

T3 sequence (Q9UBE0 whole entry): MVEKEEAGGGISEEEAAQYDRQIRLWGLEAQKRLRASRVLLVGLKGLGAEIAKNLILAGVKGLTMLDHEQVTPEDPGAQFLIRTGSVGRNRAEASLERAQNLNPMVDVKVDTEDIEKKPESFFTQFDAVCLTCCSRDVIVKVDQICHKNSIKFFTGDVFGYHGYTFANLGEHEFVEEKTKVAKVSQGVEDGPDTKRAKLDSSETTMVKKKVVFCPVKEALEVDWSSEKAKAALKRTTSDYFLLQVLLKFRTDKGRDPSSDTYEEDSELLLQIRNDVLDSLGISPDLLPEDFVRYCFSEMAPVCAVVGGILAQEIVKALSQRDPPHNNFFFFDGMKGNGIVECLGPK
T3 sequence (Q9UBT2 whole entry): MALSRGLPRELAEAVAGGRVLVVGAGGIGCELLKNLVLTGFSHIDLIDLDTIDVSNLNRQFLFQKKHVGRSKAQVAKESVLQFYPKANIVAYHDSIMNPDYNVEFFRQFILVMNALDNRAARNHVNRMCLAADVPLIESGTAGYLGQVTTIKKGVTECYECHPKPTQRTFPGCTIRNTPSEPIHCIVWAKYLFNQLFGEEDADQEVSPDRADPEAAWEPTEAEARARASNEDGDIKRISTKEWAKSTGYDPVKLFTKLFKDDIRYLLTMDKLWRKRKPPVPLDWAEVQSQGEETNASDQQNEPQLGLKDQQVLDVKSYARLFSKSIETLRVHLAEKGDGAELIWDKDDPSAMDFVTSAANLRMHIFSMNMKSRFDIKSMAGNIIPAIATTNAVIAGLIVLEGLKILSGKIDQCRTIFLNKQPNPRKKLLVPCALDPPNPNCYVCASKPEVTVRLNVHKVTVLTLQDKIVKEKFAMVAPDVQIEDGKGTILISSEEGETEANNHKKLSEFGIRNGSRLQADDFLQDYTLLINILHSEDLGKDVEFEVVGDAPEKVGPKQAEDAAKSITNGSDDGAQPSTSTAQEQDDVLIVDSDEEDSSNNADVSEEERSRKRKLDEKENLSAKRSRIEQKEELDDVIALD
Sequence of Intestinal-type alkaline phosphatase (Homo sapiens, UniProt P09923) (P09923 whole entry): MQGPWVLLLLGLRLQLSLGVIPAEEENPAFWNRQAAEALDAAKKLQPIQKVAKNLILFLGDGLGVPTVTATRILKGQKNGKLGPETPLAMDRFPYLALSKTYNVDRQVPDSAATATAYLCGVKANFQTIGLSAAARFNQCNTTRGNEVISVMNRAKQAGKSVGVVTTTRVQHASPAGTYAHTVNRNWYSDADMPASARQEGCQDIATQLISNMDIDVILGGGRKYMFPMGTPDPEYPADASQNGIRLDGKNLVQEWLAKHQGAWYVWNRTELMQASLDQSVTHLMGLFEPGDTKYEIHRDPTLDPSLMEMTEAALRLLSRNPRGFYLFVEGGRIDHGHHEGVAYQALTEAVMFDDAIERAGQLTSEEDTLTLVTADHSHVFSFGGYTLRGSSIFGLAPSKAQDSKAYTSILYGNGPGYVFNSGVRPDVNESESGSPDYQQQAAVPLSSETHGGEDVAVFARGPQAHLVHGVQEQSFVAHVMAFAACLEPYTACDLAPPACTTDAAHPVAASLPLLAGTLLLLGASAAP
Sequence of Intestinal-type alkaline phosphatase (Mus musculus, UniProt P24822) (P24822 whole entry): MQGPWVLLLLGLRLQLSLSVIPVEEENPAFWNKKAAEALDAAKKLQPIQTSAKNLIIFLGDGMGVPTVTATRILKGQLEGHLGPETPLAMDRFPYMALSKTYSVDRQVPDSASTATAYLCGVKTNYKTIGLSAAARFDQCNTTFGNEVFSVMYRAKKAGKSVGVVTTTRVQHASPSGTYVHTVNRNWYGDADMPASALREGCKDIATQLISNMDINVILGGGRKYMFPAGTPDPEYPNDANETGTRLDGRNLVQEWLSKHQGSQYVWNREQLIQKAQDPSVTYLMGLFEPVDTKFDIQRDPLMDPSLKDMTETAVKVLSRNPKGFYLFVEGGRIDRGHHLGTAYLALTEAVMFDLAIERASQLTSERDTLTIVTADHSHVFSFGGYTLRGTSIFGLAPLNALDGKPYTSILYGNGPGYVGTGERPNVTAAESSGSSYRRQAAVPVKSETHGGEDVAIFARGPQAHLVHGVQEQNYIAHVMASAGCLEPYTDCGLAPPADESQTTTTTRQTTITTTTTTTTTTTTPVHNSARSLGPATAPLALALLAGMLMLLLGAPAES
Sequence of Mitogen-activated protein kinase 10 (P53779 whole entry): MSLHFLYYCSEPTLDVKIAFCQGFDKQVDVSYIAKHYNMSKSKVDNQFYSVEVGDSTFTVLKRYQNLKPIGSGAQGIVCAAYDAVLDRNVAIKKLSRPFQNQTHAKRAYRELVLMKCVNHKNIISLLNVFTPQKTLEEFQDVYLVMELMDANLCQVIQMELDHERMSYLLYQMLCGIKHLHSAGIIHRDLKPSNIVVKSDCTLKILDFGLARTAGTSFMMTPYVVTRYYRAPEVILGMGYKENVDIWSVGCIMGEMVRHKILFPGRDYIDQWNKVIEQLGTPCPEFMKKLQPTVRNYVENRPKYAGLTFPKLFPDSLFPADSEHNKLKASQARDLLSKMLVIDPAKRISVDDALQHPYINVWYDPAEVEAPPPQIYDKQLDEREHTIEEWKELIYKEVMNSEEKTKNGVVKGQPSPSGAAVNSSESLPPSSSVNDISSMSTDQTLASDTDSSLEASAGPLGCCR

COc1ccc2cc1Oc1ccc(cc1)C[C@H]1c3c(cc(OC)c4c3Oc3c(ccc5c3[C@H](C2)N(C)CC5)O4)CCN1C
AC50 [1]: 8.02 µM (active)
IC50 [2]: > 20 µM (inactive)
CC50 [3]: 6.25 µM (active)
AC50 [4]: 3.56 µM (active)
IC50 [5]: 12.2 µM (active)
IC50 [6]: 16 µM (active)

COc1cccc2c(SCC(=O)N/N=C/c3ccc(O)cc3O)cc(C)nc12
IC50 [7]: 28.6 µM (active)
IC50 [8]: 3.17 µM (active)

OCCCN1c2ccccc2Nc2nnc(-c3ccccc3)cc21
IC50 [9]: > 100 µM (inactive)
IC50 [10]: 10.3 µM (active)
IC50 [11]: > 100 µM (inactive)
IC50 [12]: > 31 µM (not active)
EC50 [13]: > 12 µM (not active)
EC50 [14]: 1.97 µM (active)
EC50 [15]: 0.549 µM (active)
EC50 [16]: < 0.1 µM (inconclusive)
EC50 [17]: 0.424 µM (active)

COc1cccc(N2CCN(C(=O)c3ccc(C[S+]([O-])c4ccccc4C)o3)CC2)c1 (stereo not drawn)
EC50 [18]: 0.946 µM (active)
EC50 [19]: > 12 µM (not active)
EC50 [20]: 1.2 µM (active)
EC50 [21]: 2.01 µM (active)
EC50 [22]: 0.946 µM (inconclusive)
EC50 [23]: 22.5 µM (active)
EC50 [24]: 0.325 µM (inconclusive)
EC50 [25]: 0.325 µM (active)
EC50 [26]: 1.06 µM (active)
EC50 [27]: 7.05 µM (active)
IC50 [28]: > 80 µM (inactive)
EC50 [29]: < 0.1 µM (active)
EC50 [30]: 22.5 µM (inconclusive)
EC50 [31]: 35 µM (active)
EC50 [32]: 9.12 µM (active)
EC50 [33]: 1.59 µM (active)
